In patent US20070158208A1, “Apparatus and methods for treating ballast water by using electrolysis of natural seawater” (Research Institute of Industrial Science & Technology, priority 2003, published 2007):

Tests used:
[1] = NaOCl obtained during the electrolysis compared with HCl; cited from earlier work
Barnacle larva = test: Influence density of NaOCl in electrolyzed water on marine ecosystem; format: in vivo; details: Benthic fauna larva
Protocol: (§1) In the meantime, according to the present invention, marine microorganisms are effectively killed. Influence density for most of organisms in the seawater by electrolyzed water is shown on Table 1 below. As a result of performing the present invention, it has been checked by a natural eye that organisms causing red tide is completely eliminated within 1-2 minutes after spreading of the electrolyzed water. A density of Cochlodinium which has been a population of 7-8 thousand/ml in an actual relevant sea area has approached almost zero after four hours elapse, showing high relief efficiency. If the NaOCl component density required by the electrolyzed water is controlled, complete elimination of marine microorganisms is achieved.

Strombidinopsis sp = test: as above; format: in vivo; details: Protista
Protocol: as §1

[2] = system: Seaweeds spore: Borphyra seriata, Ulva pertusa, Brown seaweed; test: as above; format: in vivo
Protocol: as §1

Acartia spp.(Copepoda) = test: as above; format: in vivo
Protocol: as §1

Oxyrrhis marina = test: as above; format: in vivo; details: Protista
Protocol: as §1

[3] = system: Artemia larva(Kugenumaenis); test: as above; format: in vivo; details: Benthic fauna larva
Protocol: as §1

[4] = system: Adult seaweeds: Borphyra seriata, Ulva pertusa; test: as above; format: in vivo
Protocol: as §1

[5] = system: Pseudodiaptomus spp.(Copepoda); test: as above; format: in vivo; details: Zooplankton
Protocol: as §1

[6] = system: Adult benthic fauna: Tapes philippinarum, Giant pacific oyster, Pachygrapsus crassipes; test: as above; format: in vivo
Protocol: as §1

[7] = system: Fish: Bastard halibut fry, sebastes schlegeli fry; test: as above; format: in vivo
Protocol: as §1

Polykrikos kofodidii = test: as above; format: in vivo; details: Protista
Protocol: as §1

In the case of `[Na+].[O-]Cl` [NaOCl], the “Insecticide and sterilizing effects relative to HCl” value [1] is listed as “about 1.4 times”, the Influence density (Barnacle larva) is listed as 50 ppm and the Influence density (Strombidinopsis sp) is listed as 0.75-1.0 ppm. The Influence density [2] was 0.1-0.3 ppm, the Influence density (Acartia spp.(Copepoda)) was 2.0 ppm and the Influence density (Oxyrrhis marina) was 0.3 ppm. The Influence density [3] was 30-50 ppm, the Influence density [4] was 1.0-1.5 ppm and the Influence density [5] was 10-20 ppm. The Influence density [6] was 20 or more ppm, the Influence density [7] was 2-5 ppm and the Influence density (Polykrikos kofodidii) was 0.75-1.0 ppm.
